Experimental data taken from patent EP4775575A1, “COMPOUND USED AS CDK4 KINASE INHIBITOR AND USE THEREOF” (TYK Medicines, Inc., priority 2023, dated 2025).

Tests used:
[1] = system: human ovarian cancer cells A2780; test: Cell anti-proliferation assay (MTT), A2780; format: cell-based; details: Homo sapiens, 120 h, incubated for 5 days
Experimental: (§1) Human breast cancer cells MCF-7, human ovarian cancer cells A2780, human mantle cell lymphoma cells JEKO-1. DMEM medium (Bio-Channel), DMSO (dimethyl sulfoxide), MTT (thiazolyl blue), 0.25% EDTA-Trypsin (trypsin digestive solution), 1×PBS (phosphate buffered saline, pH 7.2), 96-well plate (Corning), fetal bovine serum (FBS), 10,000 U/mL penicillin-G/streptomycin, high-speed refrigerated centrifuge (EPPENDORF 5810R), and microplate reader (Tecan Spark).
(§2) • A) Tumor cells were cultured in DMEM (high glucose, containing 10% FBS and 100 U/mL penicillin-G/streptomycin) at 37 °C, 5% CO2 and saturated humidity until 80-90% confluence. • B) The medium in the 10 cm culture dish was removed. • C) Cells were rinsed once with 10 mL of 1×PBS. • D) 4 mL of 0.25% EDTA-Trypsin was added, and the cells were digested in a 37 °C, 5% CO2 incubator for 5 minutes. The mixture was transferred to a 15 mL centrifuge tube, centrifuged at 200 g for 5 minutes, and the supernatant was discarded to obtain cell pellet. • E) The cells were resuspended in 4 mL of DMEM medium, counted, and adjusted to 50,000 cells/mL. • F) 100 µL of cell suspension was added to each well of a 96-well plate, and the plate was incubated overnight at 37 °C in a 5% CO2 incubator.
(§3) • A) Gradient dilution solutions of the test compounds were prepared: the test compound was prepared into a 1 mM stock solution. Then 1.5 µL of the stock solution was dissolved in 1.5 mL of DMSO-free medium, followed by 3-fold serial gradient dilution with medium containing 0.1% DMSO to give 9 concentrations.
(§4) • A) The cell culture plate was taken out, and 10 µL of 5 mg/mL MTT was added in a biological safety cabinet; • B) The plate was returned to the incubator and incubated for another 3 hours; • C) The cell culture plate was taken out and the medium was removed, 100 µL of isopropanol (containing 0.4 mM HCl, 0.1% NP-40) was added, and the plate was shaken at room temperature for 30 minutes; • D) The absorbance at 570 nm was measured using a TECAN microplate reader.

[2] = system: Human breast cancer cells MCF-7; test: Cell anti-proliferation assay (MTT), MCF-7; format: cell-based; details: Homo sapiens, MCF7, 120 h, MCF-7 cells, incubated for 5 days
Experimental: as §1, §2, §3, §4

CDK6/CyclinD3 = target: T1, CDK6/CyclinD3 (Homo sapiens, UniProt Q00534); test: Kinase activity assay (MSA, EZ Reader) against CDK6; format: biochemical; details: CDK6/CyclinD3 5.00 nM, ATP 350 µM, FL-Peptide34, 10mM MgCl2
T1 construct: purchased Carna 04-107
T1 sequence (Q00534 whole entry): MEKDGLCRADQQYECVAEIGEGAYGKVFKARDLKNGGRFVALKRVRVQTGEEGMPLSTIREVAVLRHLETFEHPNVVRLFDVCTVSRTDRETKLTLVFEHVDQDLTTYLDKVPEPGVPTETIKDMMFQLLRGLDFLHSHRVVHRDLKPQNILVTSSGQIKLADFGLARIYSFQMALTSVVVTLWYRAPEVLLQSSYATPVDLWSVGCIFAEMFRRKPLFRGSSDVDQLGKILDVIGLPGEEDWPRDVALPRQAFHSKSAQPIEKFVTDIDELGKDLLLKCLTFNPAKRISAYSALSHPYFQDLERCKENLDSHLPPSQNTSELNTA
T1 sequence (P30281 whole entry partner): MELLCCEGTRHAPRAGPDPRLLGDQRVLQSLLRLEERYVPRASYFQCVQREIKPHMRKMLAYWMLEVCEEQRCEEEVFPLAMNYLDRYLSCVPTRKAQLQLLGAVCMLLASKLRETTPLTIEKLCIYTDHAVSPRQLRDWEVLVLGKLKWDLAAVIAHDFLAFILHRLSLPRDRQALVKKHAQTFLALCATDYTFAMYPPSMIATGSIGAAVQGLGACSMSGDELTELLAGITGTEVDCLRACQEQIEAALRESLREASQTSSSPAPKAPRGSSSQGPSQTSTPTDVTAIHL

[3] = system: human mantle cell lymphoma cells JEKO-1; test: Cell anti-proliferation assay (MTT), JEKO-1; format: cell-based; details: Homo sapiens, 120 h, JEKO-1 cells, incubated for 5 days
Experimental: as §1, §2, §3, §4

Row | SMILES | IC50 [1] | IC50 [2] | IC50 (CDK6/CyclinD3) | IC50 [3]
1 | CN1CCCn2c1nc1c(F)cc(-c3nc(N[C@@H]4CCOC[C@H]4O)ncc3F)cc12 [TB-42, (3S,4R)-4-((5-fluoro-4-(9-fluoro-1-methyl-1,2,3,4-tetrahydrobenzo[4,5]imidazo[1,2-a]pyrimidin-7-yl)pyrimidin-2-yl)amino)tetrahydro-2H-pyran-3-ol] | ≤ 500 nM | ≤ 500 nM | 195 nM | ≤ 500 nM
2 | CN1CCn2c1nc1c(F)cc(-c3nc(N[C@@H]4CCOC[C@H]4O)ncc3Cl)cc12 [TB-45, (3S,4R)-4-((5-chloro-4-(8-fluoro-1-methyl-2,3-dihydro-1H-benzo[d]imidazo[1,2-a]imidazol-6-yl)pyrimidin-2-yl)amino)tetrahydro-2H-pyran-3-ol] | ≤ 500 nM | ≤ 500 nM | 241 nM | ≤ 500 nM
3 | CN1C(=O)CCn2c1nc1c(F)cc(-c3nc(N[C@@H]4CCOC[C@H]4O)ncc3Cl)cc12 [TB-46, 7-(5-chloro-2-(((3S,4R)-3-hydroxytetra hydro-2H-pyran-4-yl)amino)pyrimidin-4-yl)-9-fluoro-1-methyl-3,4-dihydrobenzo[4,5]imidazo[1,2-a]pyrimidin-2(1H)-one] | ≤ 500 nM | ≤ 500 nM | 244 nM | ≤ 500 nM
4 | CN1CCn2c1nc1c(F)cc(-c3nc(NC4CCN(S(C)(=O)=O)CC4)ncc3Cl)cc12 [TB-52, 5-chloro-4-(8-fluoro-1-methyl-2,3-dihydro-1H-benzo[d]imidazo[1,2-a]imidazol-6-yl)-N-(1-(methylsulfonyl)piperidin-4-yl)pyrimidin-2-amine] | ≤ 500 nM | ≤ 500 nM | 40.6 nM | ≤ 500 nM
5 | CN1CCCn2c1nc1c(F)cc(-c3nc(Nc4ccncc4)ncc3Cl)cc12 [TB-90] | ≤ 500 nM | 500 to 2000 nM | 95.2 nM | ≤ 500 nM
6 | C[C@@H]1CCN(C)c2nc3c(F)cc(-c4nc(N[C@@H]5CCOC[C@H]5O)ncc4Cl)cc3n21 [TB-91, (3S,4R)-4-((5-chloro-4-((R)-9-fluoro-1,4-dimethyl-1,2,3,4-tetrahydrobenzo[4,5]imidazo[1,2-a]pyrimidin-7-yl)pyrimidin-2-yl)amino)tetrahydro-2H-pyran-3-ol] | ≤ 500 nM | ≤ 500 nM | 68.4 nM | ≤ 500 nM
7 | COCc1cc(Nc2ncc(Cl)c(-c3cc(F)c4nc5n(c4c3)CCCN5C)n2)ccn1 [TB-130, 5-chloro-4-(9-fluoro-1-methyl-1,2,3,4-tetrahydrobenzo[4,5]imidazo[1,2-a]pyrimidin-7-yl)-N-(2-(methoxymethyl)pyridin-4-yl)pyrimidin-2-amine] | ≤ 500 nM | ≤ 500 nM | 155 nM | ≤ 500 nM
8 | CN1CCCn2c1nc1c(F)cc(-c3nc(NC4CCOCC4)ncc3Cl)cc12 [TB-132, 5-chloro-4-(9-fluoro-1-methyl-1,2,3,4-tetrahydrobenzo[4,5]imidazo[1,2-a]pyrimidin-7-yl)-N-(tetrahydro-2H-pyran-4-yl)pyrimidin-2-amine] | ≤ 500 nM | 500 to 2000 nM | 246 nM | ≤ 500 nM
9 | CCS(=O)(=O)N1CCC(Nc2ncc(Cl)c(-c3cc(F)c4nc5n(c4c3)CCCN5C)n2)CC1 [TB-143, 5-chloro-N-(1-(ethylsulfonyl)piperidin-4-yl)-4-(9-fluoro-1-methyl-1,2,3,4-tetrahydrobenzo[4,5]imidazo[1,2-a]pyrimidin-7-yl)pyrimidin-2-amine] | ≤ 500 nM | ≤ 500 nM | 58.3 nM | ≤ 500 nM
10 | CNS(=O)(=O)N1CCC(Nc2ncc(Cl)c(-c3cc(F)c4nc5n(c4c3)CCCN5C)n2)CC1 [TB-144, 4-((5-chloro-4-(9-fluoro-1-methyl-1,2,3,4-tetrahydrobenzo[4,5]imidazo[1,2-a]pyrimidin-7-yl)pyrimidin-2-yl)amino)-N-methylpiperidine-1-sulfonamide] | ≤ 500 nM | ≤ 500 nM | 126 nM | ≤ 500 nM
